Experimental data from patent US20160152831A1, “YELLOW COLORANT FOR HAIR DYEING, COMPOSITION FOR HAIR DYEING, AND HAIR DYEING METHOD” (HODOGAYA CHEMICAL CO., LTD., priority 2013, published 2016).

What was measured:
[1] = Shampooing-fastness test of dyed hair; assay type: physicochemical, human; details: for Color Difference (ΔE*): before vs after test; for Color Difference (ΔE*) / Residual Ratio %: 5 cycles; for Residual Ratio %: dyeing density after test to before test
Method: The test sample with Yellow 29 prepared in Example 1 was tested according to the shampooing-fastness test mentioned below, and the dyeing density (K/Sd) and color difference (ΔE*) before and after the test were determined. In the Table, the residual ratio (%) means the ratio of the dyeing density after the test to the dyeing density before the test.
The test sample was subjected to a cycle operation of (1) shampooing followed by (2) treatment as mentioned below, repeatedly five times in all, and then spontaneously dried at room temperature (about 20° C.).
Shampoo liquid: aqueous 5% sodium laurylsulfate solution
Bath ratio: 1/10 (mass of shampooing liquid relative to 1 g mass of dyed hair)
Processing temperature: 45° C.
Processing time: 20 minutes
Post-treatment: rinsing with water
Treatment liquid: aqueous 5% trimethylstearylammonium chloride solution
Bath ratio: 1/10 (mass of treatment liquid relative to 1 g mass of dyed hair)

[2] = Light-fastness test of dyed hair (xenon fade meter); assay type: physicochemical, human; details: 330 W/m^2, 20 hours; for Color Difference (ΔE*): before vs after test; for Residual Ratio %: dyeing density after test to before test
Method: A composition for hair dyeing having a pH of 6 was prepared according to the compounding formation as shown in Table 6 by using Yellow 29 as the dye. By using the thus-prepared composition for hair dyeing, a test sample was prepared according to the same method as in Example 1. The resultant test sample was exposed to white light at an irradiation dose of 330 W/m^2 for 20 hours, by using a xenon long-life fade meter light-fastness tester Suga Test Instrument, FAL-25AX-HC-BEC Model), and the dyeing density (K/Sd) and the color values (L*, a*, b*) before and after the test, and the color difference (ΔE*) were determined. The light-fastness test was carried out under the condition where the temperature of the test sample could be from 60 to 66° C.

Row | SMILES | Color Difference (ΔE*) [1] | shampooing-fastness ([1]; compared with Yellow 87) | Residual Ratio % [1] [%] | light-fastness [2] | Color Difference (ΔE*) [2] | Residual Ratio % [2] [%]
1 | Cc1ccc(N(C)/N=C/C2=[N+](C)c3ccccc3C2(C)C)cc1 [Yellow 29, C. I. Basic Yellow 29] | 6.6 | extremely excellent | 82 | excellent | 2.8 | 89
2 | Cc1nn(-c2ccccc2)c(O)c1/N=N/c1cccc([N+](C)(C)C)c1.[Cl-] [Yellow 57, C.I. Basic Yellow 57, reference compound] |  |  |  | low | 10.2 | 98
3 | CN(/N=C\c1cc[n+](C)cc1)c1ccccc1 [Yellow 87, C.I. Basic Yellow 87, reference compound] | 21.8 |  | 33 |  |  | 
